How the values were obtained:
Test in all cases: cells
Type in all cases: functional, cell-based
Details in all cases: Homo sapiens
Ca9-22 = tested on: Ca9-22;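 also: growth inhibition of Ca9-22 cells, read out with a cell viability assay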
Description: SANGER: Inhibition of human Ca9-22 cell growth in a cell viability assay.

DBTRG-05MG = tested on: DBTRG-05MG;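 also: cell viability assay measuring growth inhibition of human DBTRG-05MG cells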
Description: SANGER: Inhibition of human DBTRG-05MG cell growth in a cell viability assay.

DMS-273 = tested on: DMS-273
Description: SANGER: Inhibition of human DMS-273 cell growth in a cell viability assay.

DoTc2-4510 = tested on: DoTc2-4510
EGI-1 = tested on: EGI-1;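 also: cell viability readout used to gauge growth inhibition of EGI-1 cells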
Description: SANGER: Inhibition of human EGI-1 cell growth in a cell viability assay.

ESS-1 = tested on: ESS-1;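 also: growth inhibition of human ESS-1 cells, read out by a cell viability assay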
Description: SANGER: Inhibition of human ESS-1 cell growth in a cell viability assay.

HCC1569 = tested on: HCC1569;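 also: growth inhibition of human HCC1569 cells, read out with a cell viability assay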
Description: SANGER: Inhibition of human HCC1569 cell growth in a cell viability assay.

HCC2157 = tested on: HCC2157;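 also: growth inhibition of the cancer cell line, read out as cell viability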
Description: SANGER: Inhibition of human HCC2157 cell growth in a cell viability assay.

HCC 2998 = tested on: HCC 2998;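 also: growth inhibition of human HCC2998 cells, measured with a cell viability read-out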
Description: SANGER: Inhibition of human HCC2998 cell growth in a cell viability assay.

HCC38 = tested on: HCC38;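 also: cell viability assay on the human HCC38 cell line, with IC50 marking the concentration that inhibits cell growth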
Description: SANGER: Inhibition of human HCC38 cell growth in a cell viability assay.

HLE = tested on: HLE;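 also: growth inhibition of human HLE cells, read out by a cell viability assay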
Description: SANGER: Inhibition of human HLE cell growth in a cell viability assay.

HSC-2 = tested on: HSC-2;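 also: growth inhibition of human HSC-2 cells, read out by a cell viability assay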
Description: SANGER: Inhibition of human HSC-2 cell growth in a cell viability assay.

Hs-578T = tested on: Hs-578T
Description: SANGER: Inhibition of human Hs-578-T cell growth in a cell viability assay.

HuO9 = tested on: HuO9;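 also: growth inhibition of HuO9 cells, read out with a cell viability assay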
Description: SANGER: Inhibition of human HuO9 cell growth in a cell viability assay.

MC-IXC = tested on: MC-IXC;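 also: growth inhibition of MC-IXC cells, read out with a cell viability assay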
Description: SANGER: Inhibition of human MC-IXC cell growth in a cell viability assay.

NB14 = tested on: NB14;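 also: growth inhibition of NB14 cells measured with a cell viability assay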
Description: SANGER: Inhibition of human NB14 cell growth in a cell viability assay.

NCI-H2228 = tested on: NCI-H2228;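 also: growth inhibition of human NCI-H2228 cells, read out by a cell viability assay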
Description: SANGER: Inhibition of human NCI-H2228 cell growth in a cell viability assay.

NCI-H2347 = tested on: NCI-H2347;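 also: growth inhibition of the cell line, read out with a cell viability assay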
Description: SANGER: Inhibition of human NCI-H2347 cell growth in a cell viability assay.

NCI-H2405 = tested on: NCI-H2405;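 also: growth inhibition of the human cell line, read out with a cell viability assay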
Description: SANGER: Inhibition of human NCI-H2405 cell growth in a cell viability assay.

NCI-H28 = tested on: NCI-H28;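 also: growth inhibition of human NCI-H28 cells, read out as cell viability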
Description: SANGER: Inhibition of human NCI-H28 cell growth in a cell viability assay.

NCI-H650 = tested on: NCI-H650;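 also: growth inhibition of NCI-H650 cells, read out by a viability assay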
Description: SANGER: Inhibition of human NCI-H650 cell growth in a cell viability assay.

PFSK-1 = tested on: PFSK-1;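 also: cell viability assay measuring how strongly compounds suppress growth of human PFSK-1 cells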
Description: SANGER: Inhibition of human PFSK-1 cell growth in a cell viability assay.

SCC-25 = tested on: SCC-25;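 also: growth inhibition of SCC-25 cells, measured with a cell viability assay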
Description: SANGER: Inhibition of human SCC-25 cell growth in a cell viability assay.

SJRH30 = tested on: SJRH30;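 also: growth inhibition of human SJRH30 cells, read out with a cell viability assay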
Description: SANGER: Inhibition of human SJRH30 cell growth in a cell viability assay.

SK-MEL-30 = tested on: SK-MEL-30;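 also: growth inhibition of SK-MEL-30 cells, determined with a cell viability assay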
Description: SANGER: Inhibition of human SK-MEL-30 cell growth in a cell viability assay.

SW1990 = tested on: SW1990;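 also: cell growth inhibition determined with a viability assay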
Description: SANGER: Inhibition of human SW1990 cell growth in a cell viability assay.

SW48 = tested on: SW48;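 also: growth inhibition of SW48 cells, read out with a cell viability assay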
Description: SANGER: Inhibition of human SW48 cell growth in a cell viability assay.

SiHa = tested on: SiHa;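 also: Viability-based readout of growth inhibition in SiHa cells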
Description: SANGER: Inhibition of human SiHa cell growth in a cell viability assay.

786-0 = tested on: 786-0
Description: SANGER: Inhibition of human 786-0 cell growth in a cell viability assay.

A2780 = tested on: A2780;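 also: growth inhibition of A2780 cells, read out with a cell viability assay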
Description: SANGER: Inhibition of human A2780 cell growth in a cell viability assay.

A-427 = tested on: A-427;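 also: growth inhibition of human A-427 cells, read out by a cell viability assay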
Description: SANGER: Inhibition of human A427 cell growth in a cell viability assay.

AGS = tested on: AGS;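 also: growth inhibition of AGS cells, determined with a cell viability assay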
Description: SANGER: Inhibition of human AGS cell growth in a cell viability assay.

BCPAP = tested on: BCPAP;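 also: growth inhibition of BCPAP cells, read out in a cell viability assay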
Description: SANGER: Inhibition of human BCPAP cell growth in a cell viability assay.

BEN = tested on: BEN;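 also: growth inhibition of the BEN cell line, read out with a cell viability assay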
Description: SANGER: Inhibition of human BEN cell growth in a cell viability assay.

BT-20 = tested on: BT-20;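 also: cell viability assay measuring suppression of growth in human BT-20 cells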
Description: SANGER: Inhibition of human BT-20 cell growth in a cell viability assay.

C-33-A = tested on: C-33-A;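 also: cell viability assay measuring growth inhibition of C-33-A cells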
Description: SANGER: Inhibition of human C-33-A cell growth in a cell viability assay.

CAL-39 = tested on: CAL-39;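 also: cell viability assay measuring growth inhibition of CAL-39 cells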
Description: SANGER: Inhibition of human CAL-39 cell growth in a cell viability assay.

U-118-MG = tested on: U-118-MG
Description: SANGER: Inhibition of human U-118-MG cell growth in a cell viability assay.

WM-115 = tested on: WM-115
Description: SANGER: Inhibition of human WM-115 cell growth in a cell viability assay.

HMV-2 cell line = tested on: HMV-2 cell line;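 also: growth inhibition of HMV-II cells, read out with a cell viability assay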
Description: SANGER: Inhibition of human HMV-II cell growth in a cell viability assay.

NCI-H1703 = tested on: NCI-H1703;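 also: growth inhibition of NCI-H1703 cells, read out via a cell viability assay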
Description: SANGER: Inhibition of human NCI-H1703 cell growth in a cell viability assay.

A2058 = tested on: A2058;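 also: reduction of A2058 cell growth, read out with a viability assay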
Description: SANGER: Inhibition of human A2058 cell growth in a cell viability assay.

ACHN = tested on: ACHN;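 also: cell viability read-out used to gauge how strongly growth of human ACHN cells is suppressed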
Description: SANGER: Inhibition of human ACHN cell growth in a cell viability assay.

UACC-893 = tested on: UACC-893
Description: SANGER: Inhibition of human UACC-893 cell growth in a cell viability assay.

For `CC(=O)c1c(C)c2cnc(Nc3ccc(N4CCNCC4)cn3)nc2n(C2CCCC2)c1=O` [PALBOCICLIB], the IC50 (Ca9-22) was > 4000 nM, the IC50 (DBTRG-05MG) was > 4 µM and the IC50 (DMS-273) was > 4000 nM. For the same molecule, the IC50 (DoTc2-4510) was > 4000 nM, the IC50 (EGI-1) was 2470 nM and the IC50 (ESS-1) was > 4000 nM. For the same molecule, the IC50 (HCC1569) was > 4000 nM, the IC50 (HCC2157) was > 4000 nM and the IC50 (HCC 2998) was > 4000 nM. The IC50 (HCC38) was > 4000 nM, the IC50 (HLE) was > 4000 nM and the IC50 (HSC-2) was > 4000 nM. The IC50 (Hs-578T) was 1260 nM, the IC50 (HuO9) was > 4000 nM and the IC50 (MC-IXC) was > 4000 nM. The IC50 (NB14) was 484 nM, the IC50 (NCI-H2228) was > 4000 nM and the IC50 (NCI-H2347) was > 4000 nM. The IC50 (NCI-H2405) was > 4000 nM, the IC50 (NCI-H28) was > 4000 nM and the IC50 (NCI-H650) was > 4000 nM. The IC50 (PFSK-1) was > 4000 nM, the IC50 (SCC-25) was > 4000 nM and the IC50 (SJRH30) was > 4000 nM. The IC50 (SK-MEL-30) was > 4000 nM, the IC50 (SW1990) was > 4000 nM and the IC50 (SW48) was > 4000 nM. The IC50 (SiHa) was > 4000 nM, the IC50 (786-0) was 2150 nM and the IC50 (A2780) was > 4000 nM. The IC50 (A-427) was > 4000 nM, the IC50 (AGS) was > 4000 nM and the IC50 (BCPAP) was 1660 nM. The IC50 (BEN) was > 4000 nM, the IC50 (BT-20) was > 4000 nM and the IC50 (C-33-A) was > 4000 nM. For the same molecule, the IC50 (CAL-39) was 1080 nM, the IC50 (U-118-MG) was > 4000 nM and the IC50 (WM-115) was > 4000 nM.

In the case of `CCCS(=O)(=O)Nc1ccc(F)c(C(=O)c2c[nH]c3ncc(Cl)cc23)c1F` [PLX-4720], the IC50 (Ca9-22) is reported as > 10000 nM, the IC50 (DBTRG-05MG) is reported as 4.53 µM and the IC50 (DMS-273) is reported as > 10000 nM. The IC50 (DoTc2-4510) was > 10000 nM, the IC50 (EGI-1) was > 10000 nM and the IC50 (ESS-1) was > 10000 nM. The IC50 (HCC1569) was > 10000 nM, the IC50 (HCC2157) was > 10000 nM and the IC50 (HCC 2998) was > 10000 nM. For the same molecule, the IC50 (HCC38) was > 10000 nM, the IC50 (HLE) was > 10000 nM and the IC50 (HMV-2 cell line) was > 10 µM. For the same molecule, the IC50 (HSC-2) was > 10000 nM, the IC50 (Hs-578T) was > 10000 nM and the IC50 (HuO9) was > 10000 nM. The IC50 (MC-IXC) was > 10000 nM, the IC50 (NB14) was > 10000 nM and the IC50 (NCI-H1703) was > 10 µM. For the same molecule, the IC50 (NCI-H2228) was > 10000 nM, the IC50 (NCI-H2347) was > 10000 nM and the IC50 (NCI-H2405) was > 10000 nM. For the same molecule, the IC50 (NCI-H28) was > 10000 nM, the IC50 (NCI-H650) was > 10000 nM and the IC50 (PFSK-1) was > 10000 nM. The IC50 (SCC-25) was > 10000 nM, the IC50 (SJRH30) was > 10000 nM and the IC50 (SK-MEL-30) was 1330 nM. For the same molecule, the IC50 (SW1990) was > 10000 nM, the IC50 (SW48) was > 10000 nM and the IC50 (SiHa) was > 10000 nM. The IC50 (786-0) was > 10000 nM, the IC50 (A2058) was 4720 nM and the IC50 (A2780) was > 10000 nM. The IC50 (A-427) was > 10000 nM, the IC50 (ACHN) was > 10000 nM and the IC50 (AGS) was > 10000 nM. For the same molecule, the IC50 (BCPAP) was 7220 nM, the IC50 (BEN) was > 10000 nM and the IC50 (BT-20) was > 10000 nM. The IC50 (C-33-A) was > 10000 nM, the IC50 (CAL-39) was > 10000 nM and the IC50 (U-118-MG) was > 10000 nM. The IC50 (UACC-893) was > 10000 nM and the IC50 (WM-115) was 887 nM.

`Cn1c(=O)n(-c2ccc(C(C)(C)C#N)cc2)c2c3cc(-c4cnc5ccccc5c4)ccc3ncc21` [DACTOLISIB] gave an IC50 (Ca9-22) of 33.6 nM, an IC50 (DBTRG-05MG) of 0.198 µM and an IC50 (DMS-273) of 60.9 nM. It also gave an IC50 (DoTc2-4510) of 1070 nM, an IC50 (EGI-1) of 16.4 nM and an IC50 (ESS-1) of 135 nM. The IC50 (HCC1569) was 276 nM, the IC50 (HCC2157) was 128 nM and the IC50 (HCC 2998) was 118 nM. It also gave an IC50 (HCC38) of 266 nM, an IC50 (HLE) of 53.5 nM and an IC50 (HSC-2) of 95.9 nM. The IC50 (Hs-578T) was 24.6 nM, the IC50 (HuO9) was 26.8 nM and the IC50 (MC-IXC) was 70.1 nM. It also gave an IC50 (NB14) of 88.3 nM, an IC50 (NCI-H2228) of 88.3 nM and an IC50 (NCI-H2347) of 173 nM. It also gave an IC50 (NCI-H2405) of 54.9 nM, an IC50 (NCI-H28) of 34.4 nM and an IC50 (NCI-H650) of 94.1 nM. The IC50 (PFSK-1) was 49.1 nM, the IC50 (SCC-25) was 89.8 nM and the IC50 (SJRH30) was 144 nM. It also gave an IC50 (SK-MEL-30) of 196 nM, an IC50 (SW1990) of 109 nM and an IC50 (SW48) of 201 nM. The IC50 (SiHa) was 329 nM, the IC50 (786-0) was 22.3 nM and the IC50 (A2058) was 33.2 nM. It also gave an IC50 (A2780) of 106 nM, an IC50 (A-427) of 183 nM and an IC50 (ACHN) of 357 nM. It also gave an IC50 (AGS) of 48.8 nM, an IC50 (BCPAP) of 18.7 nM and an IC50 (BEN) of 31.6 nM. The IC50 (BT-20) was 112 nM, the IC50 (C-33-A) was 136 nM and the IC50 (CAL-39) was 37.9 nM. It also gave an IC50 (U-118-MG) of 134 nM, an IC50 (UACC-893) of 406 nM and an IC50 (WM-115) of 68.1 nM.

From ChEMBL document CHEMBL1201861, “Genomics of Drug Sensitity in Cancer screening data, Wellcome Trust Sanger Institute”
